According to patent US20190127366A1 (LifeSci Pharmaceuticals, Inc., priority 2015, published 2019):

Biological target: T1, human complement factor D (Homo sapiens, UniProt P00746)
T1 construct: purchased R&D Systems 1824-SE
Assay: In vitro enzyme inhibition (Z-Lys-SBzl/DTNB absorbance assay)
Format: biochemical
Settings: Complement Factor D (R&D Systems), substrate Z-Lys-SBzl, A405 nm; read-out: CFD IC50
Description: The ability of the compounds disclosed herein to inhibit human complement factor D inhibitory activity was quantified according to the 12-step protocol provided below. • 1. Prepare assay buffer: 50 mM Tris/HCl, pH 7.5, 1 M NaCl. • 2. Dilute 10 mM Complement Factor D inhibitor Nafamostat Mesilate (Selleckchem, Catalog #S1386) solution from 10000 μM to 9.77 μM in 100% DMSO, 8 concentrations. Then dilute the serial concentrations of Nafamostat Mesilate 20-fold in assay buffer. • 3. Add 10 μl diluted Nafamostat Mesilate duplicated into each of the inhibitor control well of a 96-well plate (Corning, Catalog #3599). Final concentrations were 50 μM, 25 μM, 12.5 μM, 6.25 μM, 3.125 μM, 0.781 μM, 0.195 μM and 0.049 μM. 0.5% DMSO was in each well finally. • 4. Dilute 20 mM test compounds from 10000 μM to […] in 100% DMSO, 6-fold dilution, 8 concentrations. Then dilute the serial concentrations of test compounds 20-fold in assay buffer. • 5. Add 10 μl diluted test compounds duplicated into the 96-well plate. Final concentrations were 50 μM, 8.33 μM, 1.39 μM, 0.23 μM, 0.0386 μM, 0.0064 μM, 0.0011 μM and 0.0002 μM. 0.5% DMSO was in each well finally. • 6. Dilute 20 mM substrate Z-Lys-SBzl (Bachem, Cat #M-1300) to 200 μM in assay buffer with 200 μM DTNB(Sigma, Catalog #D8130). • 7. Dilute 738 ng/μL Complement Factor D (R&D Systems, Catalog #1824-SE) to 6.25 ng/μL in assay buffer. Add 40 μl diluted Complement Factor D in the 96-well plate. • 8. Positive control well contains Complement Factor D without test compound. Negative control well contains neither Complement Factor D nor test compound. Using assay buffer, bring the total volume of all controls to 50 μl. • 9. Pre-incubate the plate for 5 min at room temperature. • 10. Add 50 μl of diluted substrate/DTNB mixture into each well. Mix the reagents completely by shaking the plate gently for 30 sec. • 11. For kinetic reading: Immediately start measuring absorbance (A405 nm) continuously and record data every 30sec for 60 min. • 12. Data analysis • Inhibition activity of compound was evaluated by IC50. IC50 was calculated according the dose-response curve of compound fitted using GraphPadPrism with “log(inhibitor)-response (variable slope)” equation. • % inhibition was calculated by using following equation:
[formula] • Mean(NC): The average value of the negative control wells' A405 nm values. • Mean(PC): The average value of the positive control wells' A405 nm values.
The ability of the compounds in Table 2 to inhibit human complement factor D inhibitory activity was determined.

T1 sequence (P00746 26-253): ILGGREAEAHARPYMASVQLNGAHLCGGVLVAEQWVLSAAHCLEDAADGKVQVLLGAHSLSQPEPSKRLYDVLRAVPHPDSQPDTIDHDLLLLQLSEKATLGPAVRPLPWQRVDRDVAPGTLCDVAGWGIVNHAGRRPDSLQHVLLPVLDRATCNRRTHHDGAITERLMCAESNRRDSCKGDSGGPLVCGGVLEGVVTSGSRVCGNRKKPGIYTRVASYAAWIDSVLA

| SMILES | IC50 |
| --- | --- |
| NC(=O)c1nn(CC(=O)N2C3CCC(C3)[C@H]2C(=O)Nc2cccc(C(F)(F)F)n2)c2ccccc12 (stereo partly drawn) [Example 13, 1-(2-oxo-2-((3S)-3-((6-(trifluoromethyl)pyridin-2-yl)carbamoyl)-2-azabicyclo[2.2.1]heptan-2-yl)ethyl)-1H-indazole-3-carboxamide] | 1 to 10 µM |
| CNC(=O)c1nn(CC(=O)N2[C@@H]3CC[C@@H](C3)[C@H]2C(=O)Nc2cccc(Cl)n2)c2ccccc12 [Example 88, 1-(2-((1R,3S,4S)-3-((6-chloropyridin-2-yl)carbamoyl)-2-azabicyclo[2.2.1]heptan-2-yl)-2-oxoethyl)-N-methyl-1H-indazole-3-carboxamide] | 1 to 10 µM |
| NC(=O)c1nn(CC(=O)N2[C@@H]3CC[C@@H](C3)[C@H]2C(=O)NCc2cccc(Cl)c2F)c2cc(CC(=O)O)ccc12 [Example 127, 2-(3-carbamoyl-1-(2-((1R,3S,4S)-3-((3-chloro-2-fluorobenzyl)carbamoyl)-2-azabicyclo[2.2.1]heptan-2-yl)-2-oxoethyl)-1H-indazol-6-yl)acetic acid] | 1 to 10 µM |
| Cc1ccc2c(c1)c(C(N)=O)nn2CC(=O)N1[C@@H]2CC[C@@H](C2)[C@H]1C(=O)Nc1cccc(Cl)n1 [Example 61, 1-(2-((1R,3S,4S)-3-((6-chloropyridin-2-yl)carbamoyl)-2-azabicyclo[2.2.1]heptan-2-yl)-2-oxoethyl)-5-methyl-1H-indazole-3-carboxamide] | 0.1 to 1 µM |
| COc1cccc(NC(=O)[C@@H]2[C@H]3CC[C@H](C3)N2C(=O)Cn2nc(C(N)=O)c3ccccc32)n1 [Example 50, 1-(2-((1R,3S,4S)-3-((6-methoxypyridin-2-yl)carbamoyl)-2-azabicyclo[2.2.1]heptan-2-yl)-2-oxoethyl)-1H-indazole-3-carboxamide] | 1 to 10 µM |
| NC(=O)c1nn(CC(=O)N2[C@@H]3CC[C@@H](C3)[C@H]2C(=O)Nc2cccc(C3CC3)n2)c2cnccc12 [Example 4, 1-(2-((1R,3S,4S)-3-((6-cyclopropylpyridin-2-yl)carbamoyl)-2-azabicyclo[2.2.1]heptan-2-yl)-2-oxoethyl)-1H-pyrazolo[3,4-c]pyridine-3-carboxamide] | 1 to 10 µM |
| Cc1cccc(NC(=O)[C@@H]2[C@H]3CC[C@H](C3)N2C(=O)Cn2nc(C(N)=O)c3ccncc32)n1 [Example 7, 1-(2-((1R,3S,4S)-3-((6-methylpyridin-2-yl)carbamoyl)-2-azabicyclo[2.2.1]heptan-2-yl)-2-oxoethyl)-1H-pyrazolo[3,4-c]pyridine-3-carboxamide] | 1 to 10 µM |
| NC(=O)n1cc(CC(=O)N2[C@@H]3CC[C@@H](C3)[C@H]2C(=O)NCc2cccc(Cl)c2F)c2ccccc21 [Example 99, 3-(2-((1R,3S,4S)-3-((3-chloro-2-fluorobenzyl)carbamoyl)-2-azabicyclo[2.2.1]heptan-2-yl)-2-oxoethyl)-1H-indole-1-carboxamide] | 0.1 to 1 µM |
| COc1ccc2c(c1)c(C(N)=O)nn2CC(=O)N1[C@@H]2CC[C@@H](C2)[C@H]1C(=O)Nc1cccc(Cl)n1 [Example 74, 1-(2-((1R,3S,4S)-3-((6-chloropyridin-2-yl)carbamoyl)-2-azabicyclo[2.2.1]heptan-2-yl)-2-oxoethyl)-5-methoxy-1H-indazole-3-carboxamide] | 1 to 10 µM |
| NC(=O)c1nn(CC(=O)N2[C@H](C(=O)Nc3cncc(Cl)c3)C[C@@H]3CCC[C@@H]32)c2ccccc12 [Example 161, 1-(2-((2S,3aS,6aS)-2-((5-chloropyridin-3-yl)carbamoyl)hexahydrocyclopenta[b]pyrrol-1(2H)-yl)-2-oxoethyl)-1H-indazole-3-carboxamide] | 1 to 10 µM |
| NC(=O)c1nn(CC(=O)N2CCCCC[C@H]2C(=O)Nc2cccc(Cl)c2F)c2ccccc12 [Example 32, (S)-1-(2-(2-((3-chloro-2-fluorophenyl)carbamoyl)azepan-1-yl)-2-oxoethyl)-1H-indazole-3-carboxamide] | 1 to 10 µM |

The next lines start with the values.

| IC50 | SMILES |
| --- | --- |
| 0.1 to 1 µM | NC(=O)c1nn(CC(=O)N2[C@@H]3CC[C@@H](C3)[C@H]2C(=O)NCc2cc(Br)cc(Cl)c2F)c2ccccc12 [Example 109, 1-(2-((1R,3S,4S)-3-((5-bromo-3-chloro-2-fluorobenzyl)carbamoyl)-2-azabicyclo[2.2.1]heptan-2-yl)-2-oxoethyl)-1H-indazole-3-carboxamide] |
| > 10 µM | NC(=O)c1nn(CC(=O)N2[C@@H]3CC[C@@H](C3)[C@H]2C(=O)NCc2cc3c(Cl)c[nH]c3cc2F)c2ccccc12 [Example 198, 1-(2-((1R,3S,4S)-3-(((3-chloro-6-fluoro-1H-indol-5-yl)methyl)carbamoyl)-2-azabicyclo[2.2.1]heptan-2-yl)-2-oxoethyl)-1H-indazole-3-carboxamide] |
| 0.1 to 1 µM | CC(=O)c1nn(CC(=O)N2[C@H](C(=O)Nc3cccc(Cl)n3)C[C@@H]3CCC[C@@H]32)c2ccc(C)cc12 [Example 176, (2S,3aS,6aS)-1-(2-(3-acetyl-5-methyl-1H-indazol-1-yl)acetyl)-N-(6-chloropyridin-2-yl)octahydrocyclopenta[b]pyrrole-2-carboxamide] |
| 1 to 10 µM | NC(=O)c1nn(CC(=O)N2[C@@H]3CC[C@@H](C3)[C@H]2C(=O)NCc2ccc(F)c(Cl)c2)c2ccccc12 [Example 63, 1-(2-((1R,3S,4S)-3-((3-chloro-4-fluorobenzyl)carbamoyl)-2-azabicyclo[2.2.1]heptan-2-yl)-2-oxoethyl)-1H-indazole-3-carboxamide 2,2,2-trifluoroacetate] |
| 1 to 10 µM | NC(=O)c1nn(CC(=O)N2CCOC[C@H]2C(=O)Nc2cccc(Br)n2)c2ccccc12 [Example 24, (S)-N-(6-bromopyridin-2-yl)-4-(2-(3-carbamoyl-1H-indazol-1-yl)acetyl)morpholine-3-carboxamide] |
| 0.1 to 1 µM | COC(=O)Cc1ccc2c(c1)c(C(N)=O)nn2CC(=O)N1[C@@H]2CC[C@@H](C2)[C@H]1C(=O)NCc1cccc(Cl)c1F [Example 130, methyl 2-(3-carbamoyl-1-(2-((1R,3S,4S)-3-((3-chloro-2-fluorobenzyl)carbamoyl)-2-azabicyclo[2.2.1]heptan-2-yl)-2-oxoethyl)-1H-indazol-5-yl)acetate] |
| 1 to 10 µM | NC(=O)c1nn(CC(=O)N2[C@@H]3CC[C@@H](C3)[C@H]2C(=O)Nc2cccc(C(F)(F)F)n2)c2ccccc12 [Example 8, 1-(2-oxo-2-((1R,3S,4S)-3-((6-(trifluoromethyl)pyridin-2-yl)carbamoyl)-2-azabicyclo[2.2.1]heptan-2-yl)ethyl)-1H-indazole-3-carboxamide] |
| 1 to 10 µM | NC(=O)c1nn(CC(=O)N2[C@@H]3CC[C@@H](C3)[C@H]2C(=O)Nc2cccc(F)n2)c2ccccc12 [Example 53, 1-(2-((1R,3S,4S)-3-((6-fluoropyridin-2-yl)carbamoyl)-2-azabicyclo[2.2.1]heptan-2-yl)-2-oxoethyl)-1H-indazole-3-carboxamide] |
| 1 to 10 µM | NC(=O)c1nn(CC(=O)N2[C@@H]3CC[C@@H](C3)[C@H]2C(=O)NCc2cccc(Cl)c2F)c2ccc(CC(=O)O)cc12 [Example 131] |
| > 10 µM | NC(=O)c1nn(CC(=O)N2[C@@H]3CC[C@@H](C3)[C@H]2C(=O)NCc2cnc3[nH]cc(Cl)c3c2)c2ccccc12 [Example 48, 1-(2-((1R,3S,4S)-3-(((3-chloro-1H-pyrrolo[2,3-b]pyridin-5-yl)methyl)carbamoyl)-2-azabicyclo[2.2.1]heptan-2-yl)-2-oxoethyl)-1H-indazole-3-carboxamide] |
| 0.1 to 1 µM | COc1cc(Cl)nc(NC(=O)[C@@H]2[C@H]3CC[C@H](C3)N2C(=O)Cn2nc(C(N)=O)c3ccccc32)c1 [Example 97, 1-(2-((1R,3S,4S)-3-((6-chloro-4-methoxypyridin-2-yl)carbamoyl)-2-azabicyclo[2.2.1]heptan-2-yl)-2-oxoethyl)-1H-indazole-3-carboxamide] |
| 0.1 to 1 µM | NC(=O)c1nn(CC(=O)N2[C@H](C(=O)Nc3cccc(Cl)n3)C[C@@H]3CCC[C@@H]32)c2cc(Cl)ccc12 [Example 182, 6-chloro-1-(2-((2S,3aS,6aS)-2-((6-chloropyridin-2-yl)carbamoyl)hexahydrocyclopenta[b]pyrrol-1(2H)-yl)-2-oxoethyl)-1H-indazole-3-carboxamide] |
